This note sets out measurements from patent publication US20250152559A1, “METHODS FOR TREATING MYC-AMPLIFIED CANCER” (The Governing Council of the University of Toronto, priority 2023, published 2025).

One data set has as its system EGR1. The data set is described as follows: Western blotting of EGR1 expression. The format is cell-based, human. To be noted: BAY-treated tumor cells relative to control. From the text:
A wide range of enriched biological processes were detected upon genetic loss of DHODH, including myogenic differentiation, apoptosis, DNA damage response and signaling via tumor necrosis factor α (TNFα).
Protein lysates were isolated from approximately 500,000-1,000,000 cells. Pellets were rinsed with PBS and then lysed in RIPA buffer containing HALT™ protease inhibitor cocktail (ThermoFisher). Protein concentrations were quantified using the Bradford Assay (BioRad). Protein size was resolved via SDS-PAGE and then transferred to PVDF for immunoblotting. Rabbit polyclonal anti-DHODH (Cell Signaling Technologies; catalogue #80981), rabbit monoclonal anti-EGR1 (Cell Signaling Technologies; catalogue #4145), rabbit polyclonal anti-phospho-ERK1/2 Thr202/Tyr204 (Cell Signaling Technologies; catalogue #9101), rabbit monoclonal anti-phospho-4E-BP1 Thr37/46 (Cell Signaling Technologies; catalogue #2855) were used at a 1:1000 dilution. Mouse monoclonal anti-GAPDH (Abcam; catalogue #ab8245) was used at a 1:5000 dilution. For development, horse-radish peroxidase-conjugated secondary anti-mouse (BioRad; catalogue #1706516) and anti-rabbit antibodies (BioRad; catalogue #1706515) were used with BioRad Clarity ECL reagents. Quantification was performed by analyzing mean pixel density of each band and then normalizing to GAPDH loading control. […]

The nature of data set [1]: Parallel artificial membrane permeability assay (PAMPA) for blood-brain barrier. The format is in vitro ADME. From the text:
The capacity of BQR and BAY to permeate the blood-brain barrier was first examined using the in vitro parallel artificial membrane permeability assay (PAMPA)^48 (FIG. 5A).

The nature of data set [2]: Pharmacokinetic analysis of BAY2402234 in plasma and brain by LC-MS. The format is in vivo. To be noted: healthy mice undergoing treatment. As for the experimental part: In parallel to these experiments, subcutaneous flank xenografts were engrafted into two cohorts of mice, which were treated with the vehicle or R2. […] To investigate the pharmacokinetics of BAY in vivo, its concentration in plasma and brain tissues of healthy mice was directly quantified using an LC-MS approach. BAY was detected in both brains and plasma of mice undergoing treatment, however the plasma concentrations exceeded those of the brain by approximately 10-fold (FIG. 5H-I). To determine whether treatment with BAY affects de novo pyrimidine biosynthesis in vivo, changes in pyrimidine metabolism were measured in the brain in comparison to tumor tissues from the flank (FIG. 5J-K). Although BAY treatment impacted de novo pyrimidine metabolism in vivo in both brain and tumor tissues, with a similar pattern observed in vitro (FIG. 4A), the effect size was stronger in peripheral tumor tissue in comparison to brain tissue. Such findings further reflect the limited capacity for BAY to accumulate within the brain.
Standards and samples were extracted by the addition of organic solvent, containing the internal standard (IS), for protein precipitation. […] Brains were analyzed similarly, with 20 μL of sample transferred to 180 μL of IS solution prior to analysis via LC-MS.

The next data set deals with SU_MB002. The data set is described as follows: PrestoBlue cell viability, 72-hour treatment, limiting dilution. The format is cell-based, human. To be noted: SU_MB002, media with uridine hydrochloride (100 μM). The method, then:
SU_MB002, NSC194, NSC197 and NSC201FT, MBT375 and MED411FHTC were maintained in Neurocult Complete (NCC) media (Stem Cell Technologies; catalogue #05751). D425 and D458 were maintained in Dulbecco's […] (DMEM) containing 10% fetal bovine serum (FBS). HD-MB03 were maintained in NCC containing 10% FBS. All cell lines were conditioned in NCC for a minimum of 48 hours before experimentation. SU_MB002 and HD-MB03 G3MB-MYC PDOX were obtained from collaborators as kind gifts and are frequently passaged in vivo. SU_MB002, a treatment-refractory group 3 MB acquired at autopsy was received from Dr. Yoon-Jae Cho. Dr. Till Milde provided HD-MB03, a treatment-naïve group 3 MBs. ICB1299 group 4 MB cells were obtained as a gift from Silvia Marino's laboratory^62. MBT375 was established in-house from a surgical specimen of group 4 MB, which was engrafted in the cerebellum of mice for serial propagation. Nanostring genotyping was used to confirm group 4 medulloblastoma identity. MED411FHTC PDOX were procured from Dr. Olson's brain tumor research lab. D425 and D458 were obtained from the ATCC. All cell lines were fingerprint verified by short tandem repeat (STR) profiling. NSC194, NSC197 and NSC201FT were derived in-house from donor fetal brain tissues^63.
For assessment of viability, cells were seeded into 96-well plates at a density of 1,000 cells per well. Viability was measured by adding PrestoBlue™ diluted 1:10 (ThermoFisher Scientific; Catalogue #A13261) followed by a 4-hour incubation. Relative fluorescence intensity was determined via background correction. To assess tumorsphere forming capacity, cells were seeded at a low density (200 cells per well) and incubated for 3-5 days. Tumorspheres were manually counted thereafter.

In the case of `CCn1c(CO)nn(-c2cc(O[C@@H](C)C(F)(F)F)c(C(=O)Nc3c(F)cccc3Cl)cc2F)c1=O` [BAY2402234], in the data set with EGR1, the EGR1 protein expression entry is on record as “upregulated at the protein level”. Besides, the “penetration coefficient (log PE)” value in data set [1] is “superior penetration coefficient (log PE) compared to BQR”. Further, in data set [2], the “plasma concentration relative to brain concentration” value is “approximately 10 fold”. The “tumor cell proliferation and viability with uridine supplementation” value with SU_MB002 is “rescues”.
